# Reference: patent US11331299B2, “Medicinal use of serrulatane diterpenes” (The University of Sydney, priority 2016, dated 2022)
# Tests used:
# CYP2B6 = target: T1, CYP2B6 (Homo sapiens, UniProt P20813); assay: Cytochrome P450 Inhibition (CYP panel); conditions: human, probe bupropion
# T1 sequence (P20813 1-491): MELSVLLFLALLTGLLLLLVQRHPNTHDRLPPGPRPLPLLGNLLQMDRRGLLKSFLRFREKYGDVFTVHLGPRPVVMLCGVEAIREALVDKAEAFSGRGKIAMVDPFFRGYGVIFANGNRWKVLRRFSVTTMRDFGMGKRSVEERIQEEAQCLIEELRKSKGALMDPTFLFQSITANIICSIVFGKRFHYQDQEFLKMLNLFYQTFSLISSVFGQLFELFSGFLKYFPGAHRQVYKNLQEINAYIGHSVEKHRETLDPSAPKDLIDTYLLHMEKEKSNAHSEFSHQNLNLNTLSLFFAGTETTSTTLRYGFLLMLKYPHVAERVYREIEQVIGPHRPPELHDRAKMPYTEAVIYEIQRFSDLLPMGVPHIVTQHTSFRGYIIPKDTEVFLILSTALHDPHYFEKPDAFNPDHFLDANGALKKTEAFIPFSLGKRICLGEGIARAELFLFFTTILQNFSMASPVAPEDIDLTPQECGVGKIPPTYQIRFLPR
# L3MBTL3 (h) MBT domain = target: T2, L3MBTL3 (h) MBT domain (Homo sapiens, UniProt Q96JM7); assay: Epigenetic binding assay, MBT domain; conditions: read-out: % Inhibition of Control Specific Binding
# T2 construct: Tudor, MBT and chromo domains gauge the degree of lysine methylation; Eurofins CEREP (France), contract laboratory
# T2 sequence (Q96JM7 225-555 limits assumed): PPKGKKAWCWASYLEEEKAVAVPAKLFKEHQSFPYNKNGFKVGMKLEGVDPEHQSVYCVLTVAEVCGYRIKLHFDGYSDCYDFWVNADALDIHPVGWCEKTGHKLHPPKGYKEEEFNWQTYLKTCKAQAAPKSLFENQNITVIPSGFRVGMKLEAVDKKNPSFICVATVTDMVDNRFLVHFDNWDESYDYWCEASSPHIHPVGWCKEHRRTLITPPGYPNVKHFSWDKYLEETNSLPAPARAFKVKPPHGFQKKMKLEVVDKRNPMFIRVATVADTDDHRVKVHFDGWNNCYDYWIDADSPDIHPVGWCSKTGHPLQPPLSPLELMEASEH
# SUV39H2 (h) = SUV39H2 (h) (Homo sapiens, UniProt Q9H5I1); assay: Epigenetic enzyme assay, Methyltransferases (MTs); assay type: biochemical; conditions: for inhibition at 10 µM: read-out: % Inhibition of Control Values
# Chain of SUV39H2 (h) (Q9H5I1 whole entry): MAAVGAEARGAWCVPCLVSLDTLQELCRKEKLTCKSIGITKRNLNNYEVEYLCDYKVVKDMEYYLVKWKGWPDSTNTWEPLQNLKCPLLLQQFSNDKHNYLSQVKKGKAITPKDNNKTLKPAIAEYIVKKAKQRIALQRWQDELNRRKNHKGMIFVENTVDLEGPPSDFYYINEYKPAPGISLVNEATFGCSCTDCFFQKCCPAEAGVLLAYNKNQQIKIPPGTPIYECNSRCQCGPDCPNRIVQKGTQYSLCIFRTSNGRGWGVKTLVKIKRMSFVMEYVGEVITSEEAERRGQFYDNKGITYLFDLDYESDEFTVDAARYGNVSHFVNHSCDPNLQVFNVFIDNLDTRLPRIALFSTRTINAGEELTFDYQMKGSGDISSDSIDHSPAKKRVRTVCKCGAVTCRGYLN
# CBX5 (h) chromodomain = target: T3, CBX5 (h) chromodomain (Homo sapiens, UniProt P45973); assay: Epigenetic binding assay, Chromodomain; conditions: read-out: % Inhibition of Control Specific Binding
# T3 construct: Recognition and specificity determinants of the human cbx chromodomains; Eurofins CEREP (France), contract laboratory
# T3 sequence (P45973 20-78 limits assumed): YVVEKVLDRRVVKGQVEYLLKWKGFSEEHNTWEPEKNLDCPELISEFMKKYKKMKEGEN
# 639-V = assay: OncoPanel cell proliferation assay (10-day); assay type: cell-based, human; conditions: for EC50 / GI50 / IC50: Homo sapiens, Bladder; for EC50: read-out: Cell Count EC50; for GI50: read-out: Cell Count GI50; for IC50: read-out: Cell Count IC50
# JMJD2C (h) = target: T4, JMJD2C (h) (Homo sapiens, UniProt Q9H3R0); assay: Epigenetic enzyme assay, Demethylases (KDMs); assay type: biochemical; conditions: read-out: % Inhibition of Control Values
# T4 sequence (Q9H3R0 1-1056): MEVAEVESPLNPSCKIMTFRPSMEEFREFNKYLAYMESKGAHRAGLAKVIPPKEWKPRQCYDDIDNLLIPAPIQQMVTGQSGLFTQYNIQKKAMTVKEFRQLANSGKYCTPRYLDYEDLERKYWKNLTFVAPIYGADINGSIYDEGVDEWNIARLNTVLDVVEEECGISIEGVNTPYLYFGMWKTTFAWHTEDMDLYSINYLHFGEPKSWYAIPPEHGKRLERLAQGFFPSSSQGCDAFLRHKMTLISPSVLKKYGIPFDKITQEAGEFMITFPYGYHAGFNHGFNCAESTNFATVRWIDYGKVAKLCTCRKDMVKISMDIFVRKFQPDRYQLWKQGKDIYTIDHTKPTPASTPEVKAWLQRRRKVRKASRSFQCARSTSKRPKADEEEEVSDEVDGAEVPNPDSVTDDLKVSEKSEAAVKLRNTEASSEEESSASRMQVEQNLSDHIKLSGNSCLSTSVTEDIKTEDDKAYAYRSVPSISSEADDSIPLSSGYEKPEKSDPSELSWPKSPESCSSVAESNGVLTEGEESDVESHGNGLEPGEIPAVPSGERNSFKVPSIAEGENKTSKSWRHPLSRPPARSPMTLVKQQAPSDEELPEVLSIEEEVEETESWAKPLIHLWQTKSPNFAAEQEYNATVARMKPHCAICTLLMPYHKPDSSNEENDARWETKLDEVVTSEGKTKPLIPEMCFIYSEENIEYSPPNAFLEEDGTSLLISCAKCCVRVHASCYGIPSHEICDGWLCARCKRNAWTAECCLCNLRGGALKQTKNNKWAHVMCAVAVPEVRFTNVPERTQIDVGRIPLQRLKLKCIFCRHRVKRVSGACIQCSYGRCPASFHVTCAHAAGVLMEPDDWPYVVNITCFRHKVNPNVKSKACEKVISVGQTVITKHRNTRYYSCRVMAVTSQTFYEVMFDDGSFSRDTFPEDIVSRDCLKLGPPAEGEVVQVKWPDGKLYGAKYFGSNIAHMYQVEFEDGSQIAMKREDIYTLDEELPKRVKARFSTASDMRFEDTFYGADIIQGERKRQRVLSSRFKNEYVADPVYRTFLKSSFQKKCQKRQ
# BRD4(2) (h) bromodomain = target: T5, BRD4(2) (h) bromodomain (Homo sapiens, UniProt O60885); assay: Epigenetic binding assay, Bromodomain; conditions: for inhibition at 10 µM: read-out: % Inhibition of Control Specific Binding
# T5 construct: Bromodomain
# CBX2 (h) chromodomain = target: T6, CBX2 (h) chromodomain (Homo sapiens, UniProt Q14781); assay: Epigenetic binding assay, Chromodomain; conditions: read-out: % Inhibition of Control Specific Binding
# T6 construct: Recognition and specificity determinants of the human cbx chromodomains; Eurofins CEREP (France), contract laboratory
# T6 sequence (Q14781 12-70 limits assumed): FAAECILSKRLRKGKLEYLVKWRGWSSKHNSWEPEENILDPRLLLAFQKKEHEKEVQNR
# PB1(2) (h) bromodomain = target: T7, PB1(2) (h) bromodomain (Homo sapiens, UniProt Q86U86); assay: Epigenetic binding assay, Bromodomain; conditions: read-out: % Inhibition of Control Specific Binding
# T7 construct: Bromodomain
# T7 sequence (Q86U86 177-287 limits assumed): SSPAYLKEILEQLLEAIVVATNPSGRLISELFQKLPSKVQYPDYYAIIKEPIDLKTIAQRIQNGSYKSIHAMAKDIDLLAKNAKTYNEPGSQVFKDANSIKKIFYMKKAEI
# [1] = target: PKBalpha/AKT1(h) (substrate histone H3 full length) (Homo sapiens, UniProt P31749); assay: Epigenetic enzyme assay, Kinases; assay type: biochemical; conditions: read-out: % Inhibition of Control Values
# Chain of PKBalpha/AKT1(h) (substrate histone H3 full length) (P31749 whole entry): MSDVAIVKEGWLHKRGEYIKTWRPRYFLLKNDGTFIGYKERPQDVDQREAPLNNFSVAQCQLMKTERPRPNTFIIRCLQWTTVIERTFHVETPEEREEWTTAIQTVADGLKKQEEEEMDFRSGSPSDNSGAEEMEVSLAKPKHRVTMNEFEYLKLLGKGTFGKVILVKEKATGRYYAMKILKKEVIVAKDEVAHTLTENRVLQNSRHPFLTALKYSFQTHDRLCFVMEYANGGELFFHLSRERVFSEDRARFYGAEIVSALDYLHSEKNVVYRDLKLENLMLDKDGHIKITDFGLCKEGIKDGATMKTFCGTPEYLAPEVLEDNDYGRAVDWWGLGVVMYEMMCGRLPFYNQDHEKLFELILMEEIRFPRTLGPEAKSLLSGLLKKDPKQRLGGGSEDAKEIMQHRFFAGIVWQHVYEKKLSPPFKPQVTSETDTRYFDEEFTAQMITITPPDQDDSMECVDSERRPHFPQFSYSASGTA
# HL-60 leukemia cells = assay: In vitro cell viability assay (intracellular ATP, 72 hour); assay type: cell-based; conditions: HL-60 (TB) (Leukemia); 10 μM
# SP140 (h) PHD domain = target: T8, SP140 (h) PHD domain (Homo sapiens, UniProt Q13342); assay: Epigenetic binding assay, PHD domain; conditions: for inhibition at 10 µM: read-out: % Inhibition of Control Specific Binding
# T8 construct: Eurofins CEREP (France), contract laboratory
# T8 sequence (Q13342 690-736 limits assumed): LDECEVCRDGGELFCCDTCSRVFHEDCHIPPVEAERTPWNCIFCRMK
# [2] = Table 9, inhibition/concentration-response curve
compound,measurement,setting,value
"CC(C)=CCC[C@H](CO)[C@@H]1CC[C@@H](C)c2c1cc(C)c(O)c2O [Compound 1, 7,8,18-trihydroxyserrulat-14-ene]",inhibition at 1 µM,CYP2B6; human liver microsomes,13 to 16%
same,inhibition at 1 µM,CYP2B6; liver microsomes,13%
same,inhibition at 10 µM,CYP2B6; liver microsomes,55%
same,inhibition at 10 µM,L3MBTL3 (h) MBT domain,22%
same,inhibition at 10 µM,SUV39H2 (h),-8%
same,inhibition at 10 µM,CBX5 (h) chromodomain,25%
same,Relative cell count (%) Mean,639-V; 3.00E+00 microM,15.8%
same,Relative cell count (%) Mean,639-V; 3.00E+01 microM,0.0%
same,Relative cell count (%) Mean,639-V; 3.01E−01 microM,92.6%
same,Relative cell count (%) Mean,639-V; 3.01E−02 microM,103.6%
same,Relative cell count (%) Mean,639-V; 3.02E−03 microM,96.1%
same,Relative cell count (%) Mean,639-V; 9.49E+00 microM,0.3%
same,Relative cell count (%) Mean,639-V; 9.51E−01 microM,91.9%
same,Relative cell count (%) Mean,639-V; 9.52E−02 microM,91.6%
same,Relative cell count (%) Mean,639-V; 9.53E−03 microM,101.2%
same,Relative cell count (%) Mean,639-V; 9.55E−04 microM,92.0%
same,EC50,639-V,2.01 µM
same,GI50,639-V,2.01 µM
same,IC50,639-V,2.01 µM
same,inhibition at 10 µM,JMJD2C (h),35%
same,% Inhibition of Control Specific Binding,BRD4(2) (h) bromodomain; 10 μM,significant inhibitory activity
same,inhibition at 10 µM,BRD4(2) (h) bromodomain; 10 μM,76%
same,IC50,BRD4(2) (h) bromodomain; [2],5.6 µM
same,inhibition at 10 µM,CBX2 (h) chromodomain,17%
same,inhibition at 10 µM,PB1(2) (h) bromodomain,31%
same,inhibition at 10 µM,[1],-1%
same,% Cell growth,HL-60 leukemia cells,−62%
same,% Inhibition of Control Specific Binding,SP140 (h) PHD domain; 10 μM,good inhibitory activity
same,inhibition at 10 µM,SP140 (h) PHD domain; 10 μM,74%
same,IC50,SP140 (h) PHD domain; [2],4.6 µM
"CC(C)=CCC[C@@H]1C(O)Oc2c(C)cc(O)c3c2[C@H]1CC[C@H]3C (stereo partly shown) [Compound 2, 5,18-epoxyserrulat-14-en-8,18-diol]",inhibition at 1 µM,CYP2B6; human liver microsomes,13 to 16%
same,inhibition at 1 µM,CYP2B6; liver microsomes,15%
same,inhibition at 10 µM,CYP2B6; liver microsomes,38%
same,inhibition at 10 µM,L3MBTL3 (h) MBT domain,29%
same,inhibition at 10 µM,SUV39H2 (h),-16%
same,inhibition at 10 µM,CBX5 (h) chromodomain,24%
same,EC50,639-V,6.54 µM
same,GI50,639-V,7.98 µM
same,IC50,639-V,8 µM
same,inhibition at 10 µM,JMJD2C (h),2%
same,inhibition at 10 µM,BRD4(2) (h) bromodomain; 10 μM,16%
same,inhibition at 10 µM,CBX2 (h) chromodomain,6%
same,inhibition at 10 µM,PB1(2) (h) bromodomain,22%
same,inhibition at 10 µM,[1],-19%
same,% Cell growth,HL-60 leukemia cells,−35%
same,inhibition at 10 µM,SP140 (h) PHD domain; 10 μM,0%
"CC(C)=CCC[C@@H]1COc2c(C)cc(O)c3c2[C@H]1CC[C@H]3C [Compound 3, 5,18-epoxy-8-hydroxyserrulat-14-ene]",inhibition at 10 µM,L3MBTL3 (h) MBT domain,33%
same,inhibition at 10 µM,SUV39H2 (h),14%
same,inhibition at 10 µM,CBX5 (h) chromodomain,25%
same,inhibition at 10 µM,JMJD2C (h),8%
same,inhibition at 10 µM,BRD4(2) (h) bromodomain; 10 μM,13%
same,inhibition at 10 µM,CBX2 (h) chromodomain,3%
same,inhibition at 10 µM,PB1(2) (h) bromodomain,13%
same,inhibition at 10 µM,[1],-15%
same,% Cell growth,HL-60 leukemia cells,138%
same,inhibition at 10 µM,SP140 (h) PHD domain; 10 μM,2%
"CC(C)=CCC[C@H](C)[C@@H]1CC[C@@H](C)c2c1cc(C)c(O)c2O [Compound 4, 7,8-dihydroxyserrulat-14-ene]",inhibition at 1 µM,CYP2B6; human liver microsomes,13 to 16%
same,inhibition at 1 µM,CYP2B6; liver microsomes,16%
same,inhibition at 10 µM,CYP2B6; liver microsomes,49%
same,EC50,639-V,12 µM
same,GI50,639-V,12 µM
same,IC50,639-V,12 µM
same,% Cell growth,HL-60 leukemia cells,−83%
Nc1ncnc2c1ncn2[C@@H]1O[C@H](CSCC[C@H](N)C(=O)O)[C@@H](O)[C@H]1O [SAH],IC50,SUV39H2 (h); read-out: Reference IC50,24 µM
